Data taken from patent US20060079453A1, “Hla binding peptides and their uses” (priority 2002, published 2006).
Read-outs that look alike come from different tables or passages of the source. No end group written: not given here.

What was measured:
Assay in all cases: biochemical
Type in all cases: binding
HLA-DR DRB1*0101 (DR1) = HLA-DR DRB1*0101 (DR1) (Homo sapiens, UniProt P01903+P01911, A100R/D57E/F55L/F60I/F76Y/I96L/L162R/M171V/P40L/Q125E/R42F/V115G/Y59C)
HLA-DR DRB1*0301 (DR3) = HLA-DR DRB1*0301 (DR3) (Homo sapiens, UniProt P01903+P01911, A100K/A102G/A103R/A169T/F55Y/I96L/K41T/L162R/M171V/P40S/Q125H/Q178H/Q39Y/R42S/S66N/T106N/T262R/W38E/Y61H)
Chain of HLA-DR DRB1*0301 (DR3) (P01903 26-254 limits assumed, other chains not shown): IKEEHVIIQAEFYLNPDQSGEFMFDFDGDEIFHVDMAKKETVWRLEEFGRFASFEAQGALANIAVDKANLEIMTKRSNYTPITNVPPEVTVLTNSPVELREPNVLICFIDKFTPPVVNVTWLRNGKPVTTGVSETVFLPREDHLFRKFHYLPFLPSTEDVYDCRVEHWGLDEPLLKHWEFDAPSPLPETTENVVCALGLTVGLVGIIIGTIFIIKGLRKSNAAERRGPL

HLA-DR DRB1*0401 (DR4) = HLA-DR DRB1*0401 (DR4) (Homo sapiens, UniProt P01903+P01911, A100K/A169T/F76Y/I96L/K127E/L162R/M171V/N62H/P40V/Q125Y/R42H/S133A/S149N/S66Y/V115G/V209L/W38E)
HLA-DR DRB1*0405 (DR4) = HLA-DR DRB1*0405 (DR4) (Homo sapiens, UniProt P01903+P01911, A100R/A169T/D86S/F76Y/I96L/K127E/L162R/M171V/N62H/P40V/Q125Y/R42H/S133A/S149N/S66Y/V115G/V209L/W38E)
HLA-DR DRB1*0701 (DR7) = HLA-DR DRB1*0701 (DR7) (Homo sapiens, UniProt P01903+P01911, A100R/A102G/A103Q/D57E/D86V/E43K/F76Y/K127E/L162R/M171V/P40G/Q125H/Q99D/R33Q/R42Y/R54Q/S133A/S66F/T210M/V115G/Y107V/Y59L/Y89S)
HLA-DR DRB1*1101 (DR11) = HLA-DR DRB1*1101 (DR11) (Homo sapiens, UniProt P01903+P01911, A100R/A169T/A87E/I96F/K41T/L162R/M171V/P40S/Q125H/Q178H/Q39Y/Q99D/R42S/S66Y/T262R/V115G/W38E)
Chain of HLA-DR DRB1*1101 (DR11) (P01903 26-254 limits assumed, other chains not shown): as above

HLA-DR DRB1*1302 (DR13) = HLA-DR DRB1*1302 (DR13) (Homo sapiens, UniProt P01903+P01911, A100E/A169T/K41T/L162R/M171V/P40S/Q125H/Q178H/Q39Y/Q99D/R42S/S66N/T262R/V115G/W38E/Y61H)
Chain of HLA-DR DRB1*1302 (DR13) (P01903 26-254 limits assumed, other chains not shown): as above

HLA-DR DRB3*0101 (DR52) = HLA-DR DRB3*0101 (DR52) (Homo sapiens, UniProt P01903+P79483)
HLA-DR DRB4*0101 (DR53) = HLA-DR DRB4*0101 (DR53) (Homo sapiens, UniProt P01903+P13762, G164S)
HLA-DR DRB5*0101 (DR51) = HLA-DR DRB5*0101 (DR51) (Homo sapiens, UniProt P01903+Q30154)
HLA-DR DRB1*0802 (DR8) = HLA-DR DRB1*0802 (DR8) (Homo sapiens, UniProt P01903+P01911, A100R/A103L/A169T/F76Y/H45Y/I96F/K41T/L162R/M171V/P40S/Q125H/Q178H/Q39Y/Q99D/R218S/R42G/S66Y/V115G/W38E)
HLA-DR DRB1*1501 (DR15) = HLA-DR DRB1*1501 (DR15) (Homo sapiens, UniProt P01903+P01911)
HLA-DR DRB1*0901 (DR9) = HLA-DR DRB1*0901 (DR9) (Homo sapiens, UniProt P01903+P01911, A100R/A103E/D57H/D86V/F55Y/F60I/F76Y/I96F/K127E/L162R/M171V/P40D/Q125H/Q99R/R33Q/R42F/S133A/S66N/T210M/V115G/W38K/Y107V/Y59G/Y89S); details: DRB1 *0901

Row | Sequence | IC50 (HLA-DR DRB1*0101 (DR1)) [µM] | IC50 (HLA-DR DRB1*0301 (DR3)) [µM] | IC50 (HLA-DR DRB1*0401 (DR4)) [µM] | IC50 (HLA-DR DRB1*0405 (DR4)) [µM] | IC50 (HLA-DR DRB1*0701 (DR7)) [µM] | IC50 (HLA-DR DRB1*1101 (DR11)) [µM] | IC50 (HLA-DR DRB1*1302 (DR13)) [µM] | IC50 (HLA-DR DRB3*0101 (DR52)) [µM] | IC50 (HLA-DR DRB4*0101 (DR53)) [µM] | IC50 (HLA-DR DRB5*0101 (DR51)) [µM] | IC50 (HLA-DR DRB1*0401 (DR4); DRB1 *0401) [µM] | IC50 (HLA-DR DRB1*0405 (DR4); DRB1 *0405) [µM] | IC50 (HLA-DR DRB5*0101 (DR51); DRB5 *0101) [µM] | IC50 (HLA-DR DRB1*0101 (DR1); DRB1 *0101) [µM] | IC50 (HLA-DR DRB1*1302 (DR13); DRBI *1302) [µM] | IC50 (HLA-DR DRB1*1501 (DR15); DRBI *1501) [µM] | IC50 (HLA-DR DRB4*0101 (DR53); DRB4 *0101) [µM] | IC50 (HLA-DR DRB1*1501 (DR15)) [µM] | other results
1 | GAPLGGLARALAHGV | 0.537 | 352 | 13.9 | > 13 | 0.066 | 0.012 | 0.076 | 124 | 3.95 | 4.26 | – | – | – | – | – | – | – | – | –
2 | HIEFTPTRTDTYACRV | – | – | – | – | – | – | – | > 7.14 | – | – | 30 | 10 | ≥ 200 | – | – | – | – | – | IC50 (HLA-DR DRB1*0802 (DR8)): > 12.5 µM; IC50 (HLA-DR DRB1*1101 (DR11); DRB1 *1101): ≥ 200 µM
3 | HLDMLRHLYQGCQVV | – | 37.6 | – | – | – | – | – | 107 | – | – | 9.42 | 3.59 | 7.09 | 0.304 | 2.88 | 0.359 | 0.163 | – | IC50 (HLA-DR DRB1*0701 (DR7); DRB1 *0701): 27 µM
4 | HYLKAKEDSHTAWTI | – | 70.2 | – | – | – | – | – | 35.8 | – | – | 0.553 | 15.1 | 19.6 | 0.232 | 2.26 | 0.529 | 11.8 | – | IC50 (HLA-DR DRB1*0701 (DR7); DRB1 *0701): 0.801 µM; IC50 (HLA-DR DRB1*0901 (DR9)): 10.1 µM; IC50 (HLA-DR DRB1*1101 (DR11); DRB1 *1101): > 60.6 µM
5 | RTITADTFRKLFRVY | – | – | – | – | – | – | – | 0.672 | – | – | 1.04 | 1.96 | 0.093 | 0.148 | 0.095 | 0.035 | 1.56 | – | IC50 (HLA-DR DRB1*0802 (DR8)): 0.792 µM
6 | VGGAYLLPRRGPRLGV | 0.131 | 309 | 26.2 | > 12.2 | 0.703 | – | 24.7 | > 66.5 | 37.6 | 0.05 | – | – | – | – | – | – | – | 0.0041 | –
7 | VGGVALLPRRGPRLGV | 0.849 | 326 | 48.2 | > 12.2 | 61.6 | – | > 15.4 | > 66.5 | 25.7 | 20.5 | – | – | – | – | – | – | – | 0.0085 | –
8 | VGGVYALPRRGPRLGV | – | 349 | 25.7 | > 12.2 | 0.749 | 0.012 | > 15.4 | > 66.5 | – | 0.034 | – | – | – | – | – | – | – | 0.451 | –
9 | VGGVYLAPRRGPRLGV | 0.746 | 203 | 33.7 | > 12.2 | 0.878 | 0.035 | > 15.4 | > 66.5 | > 42.1 | 0.076 | – | – | – | – | – | – | – | 0.055 | –
10 | VGGVYLLARRGPRLGV | 0.06 | 23.3 | 0.485 | 2.2 | 0.595 | 0.0065 | – | 17 | 4.34 | 0.017 | – | – | – | – | – | – | – | 0.0028 | –
11 | VGGVYLLPARGPRLGV | 0.012 | 68.1 | – | 4.58 | 0.049 | 0.694 | 0.201 | 18.1 | 19 | 0.04 | – | – | – | – | – | – | – | 0.0065 | –
12 | VGGVYLLRRAGPRLGV | – | 39.8 | – | 6.43 | 0.433 | 0.067 | > 15.4 | 91.9 | 30.7 | 0.0079 | – | – | – | – | – | – | – | 0.0062 | –
13 | YGAVVNLRKTVVNFP | – | 150 | – | – | – | – | – | 51.5 | – | – | 4.19 | > 95 | 0.036 | 13.5 | 11.2 | 0.47 | 0.302 | – | IC50 (HLA-DR DRB1*0701 (DR7); DRB1 *0701): 8.27 µM; IC50 (HLA-DR DRB1*1101 (DR11); DRB1 *1101): 0.089 µM
